Experimental data published in ChEMBL document CHEMBL5370531, “Design, synthesis and pharmacological evaluation of 2,3-dihydrobenzofuran IRAK4 inhibitors for the treatment of diffuse large B-cell lymphoma” (Eur J Med Chem, 2023).
Calls of active or inactive are those of the source. The calls are words filed in the database; no cut-off is given here.

Columns and labels:
OCI-Ly10 [1] = assay: Induction of apoptosis in human OCILY10 cells assessed as early apoptotic cells at 0.5 uM incubated for 48 hrs by Annexin V-FITC/PI staining based flow cytometry (reference value: 5.4 %); assay type: functional
OCI-Ly10 [2] = assay: Induction of apoptosis in human OCILY10 cells assessed as upregulation of caspase-3 cleavage at 0.1 to 1 uM incubated for 24 hrs by immunoblotting analysis; assay type: functional, cell-based; details: dose 0.1-1 µM
OCI-Ly10 [3] = assay: Synergistic antiproliferative activity against human OCILY10 cells harboring MYD88 L265P assessed as inhibition of cell growth at 200 nM incubated for 72 hrs in presence of BTK inhibitor, ibrutinib at 3.1 nM by CCK-8 assay (reference value: 26.07 %); assay type: functional
OCI-Ly10 [4] = assay: Induction of apoptosis in human OCILY10 cells at 1 uM incubated for 48 hrs by Annexin V-FITC/PI staining based flow cytometry; assay type: functional
OCI-Ly10 [5] = assay: Induction of apoptosis in human OCILY10 cells assessed as early apoptotic cells at 0.2 uM incubated for 24 hrs by Annexin V-FITC/PI staining based flow cytometry (reference value: 10 %); assay type: functional
[6] = target: Interleukin-1 receptor-associated kinase 4 (Homo sapiens) (UniProt Q9NWZ3); assay: Inhibition of IRAK4 in human OCILY10 cells assessed as downregulation of IRAK4 phosphorylation level by immunoblotting analysis; assay type: cell-based
[7] = target: Vascular endothelial growth factor receptor 1 (Homo sapiens) (UniProt P17948); assay: Inhibition of VEGFR1 (unknown origin) at 100 nM incubated for 1 hr in presence of ATP by ELISA analysis
OCI-Ly10 [8] = assay: Induction of apoptosis in human OCILY10 cells at 0.5 uM incubated for 48 hrs by Annexin V-FITC/PI staining based flow cytometry; assay type: functional
U2932 = assay: Cytotoxicity against human U2932 cells assessed as inhibition of cell proliferation incubated for 72 hrs by CCK-8 assay; assay type: functional, cell-based; details: U2932, 72 h
OCI-Ly10 [9] = assay: Induction of apoptosis in human OCILY10 cells assessed as late apoptotic cells at 1 uM incubated for 24 hrs by Annexin V-FITC/PI staining based flow cytometry (reference value: 3.71 %); assay type: functional
OCI-Ly10 [10] = assay: Induction of apoptosis in human OCILY10 cells harboring MYD88 L265P assessed as late apoptotic cells at 0.2 uM incubated for 48 hrs in presence of BTK inhibitor, ibrutinib by Annexin V-FITC/PI staining based flow cytometry (reference value: 6.59 %); assay type: functional
[11] = target: Proto-oncogene tyrosine-protein kinase Src (Homo sapiens) (UniProt P12931); assay: Inhibition of SRC (unknown origin) at 100 nM incubated for 1 hr in presence of ATP by ELISA analysis
OCI-Ly10 [12] = assay: Synergistic antiproliferative activity against human OCILY10 cells harboring MYD88 L265P assessed as inhibition of cell growth at 1600 nM incubated for 72 hrs in presence of BTK inhibitor, ibrutinib at 3.1 nM by CCK-8 assay (reference value: 64.69 %); assay type: functional
[13] = target: Fibroblast growth factor receptor 4 (Homo sapiens) (UniProt P22455); assay: Inhibition of FGFR4 (unknown origin) at 100 nM incubated for 1 hr in presence of ATP by ELISA analysis
[14] = target: Fibroblast growth factor receptor 2 (Homo sapiens) (UniProt P21802); assay: Inhibition of FGFR2 (unknown origin) at 100 nM incubated for 1 hr in presence of ATP by ELISA analysis
OCI-Ly10 [15] = assay: Induction of apoptosis in human OCILY10 cells assessed as late apoptotic cells at 0.5 uM incubated for 24 hrs by Annexin V-FITC/PI staining based flow cytometry (reference value: 3.71 %); assay type: functional
OCI-Ly10 [16] = assay: Synergistic antiproliferative activity against human OCILY10 cells harboring MYD88 L265P assessed as inhibition of cell growth at 400 nM incubated for 72 hrs in presence of BTK inhibitor, ibrutinib at 12.5 nM by CCK-8 assay (reference value: 34.46 %); assay type: functional
OCI-Ly10 [17] = assay: Synergistic antiproliferative activity against human OCILY10 cells harboring MYD88 L265P assessed as inhibition of cell growth at 1600 nM incubated for 72 hrs in presence of BTK inhibitor, ibrutinib at 25 nM by CCK-8 assay (reference value: 64.69 %); assay type: functional
OCI-Ly10 [18] = assay: Induction of apoptosis in human OCILY10 cells harboring MYD88 L265P assessed as upregulation of caspase-3 cleavage at 0.1 uM in presence of BTK inhibitor, ibrutinib by immunoblotting analysis; assay type: functional, cell-based
OCI-Ly10 [19] = assay: Induction of apoptosis in human OCILY10 cells assessed as early apoptotic cells at 0.5 uM incubated for 24 hrs by Annexin V-FITC/PI staining based flow cytometry (reference value: 10 %); assay type: functional
OCI-Ly10 [20] = assay: Synergistic antiproliferative activity against human OCILY10 cells harboring MYD88 L265P assessed as inhibition of cell growth at 1600 nM incubated for 72 hrs in presence of BTK inhibitor, ibrutinib at 6.2 nM by CCK-8 assay (reference value: 64.69 %); assay type: functional
[21] = target: Fibroblast growth factor receptor 3 (Homo sapiens) (UniProt P22607); assay: Inhibition of FGFR3 (unknown origin) at 100 nM incubated for 1 hr in presence of ATP by ELISA analysis
OCI-Ly10 [22] = assay: Induction of apoptosis in human OCILY10 cells harboring MYD88 L265P assessed as early apoptotic cells at 0.2 uM incubated for 48 hrs in presence of BTK inhibitor, ibrutinib by Annexin V-FITC/PI staining based flow cytometry (reference value: 6.76 %); assay type: functional
[23] = target: Ephrin type-A receptor 2 (Homo sapiens) (UniProt P29317); assay: Inhibition of EPHA2 (unknown origin) at 100 nM incubated for 1 hr in presence of ATP by ELISA analysis
[24] = target: T1, Interleukin-1 receptor-associated kinase 4 (Homo sapiens, UniProt Q9NWZ3); assay: Inhibition of IRAK4 (unknown origin) by Z-LYTE enzymatic kinase assay
T1 sequence (Q9NWZ3 whole entry): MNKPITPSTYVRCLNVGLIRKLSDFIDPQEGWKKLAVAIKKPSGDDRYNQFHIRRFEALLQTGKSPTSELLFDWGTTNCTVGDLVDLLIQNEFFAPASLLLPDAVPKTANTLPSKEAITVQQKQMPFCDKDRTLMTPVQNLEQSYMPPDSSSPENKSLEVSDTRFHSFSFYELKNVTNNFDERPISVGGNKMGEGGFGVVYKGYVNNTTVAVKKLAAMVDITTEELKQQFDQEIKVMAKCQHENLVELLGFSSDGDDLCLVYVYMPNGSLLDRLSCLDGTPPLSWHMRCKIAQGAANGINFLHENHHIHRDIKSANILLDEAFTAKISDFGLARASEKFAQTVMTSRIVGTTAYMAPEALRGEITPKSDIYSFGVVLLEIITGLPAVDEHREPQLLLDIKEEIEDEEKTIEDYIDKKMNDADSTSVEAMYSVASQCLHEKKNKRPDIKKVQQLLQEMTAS

[25] = target: Receptor-type tyrosine-protein kinase FLT3 (Homo sapiens) (UniProt P36888); assay: Inhibition of FLT3 (unknown origin) at 100 nM incubated for 1 hr in presence of ATP by ELISA analysis relative to control
Chain of Receptor-type tyrosine-protein kinase FLT3 (Homo sapiens) (P36888 whole entry): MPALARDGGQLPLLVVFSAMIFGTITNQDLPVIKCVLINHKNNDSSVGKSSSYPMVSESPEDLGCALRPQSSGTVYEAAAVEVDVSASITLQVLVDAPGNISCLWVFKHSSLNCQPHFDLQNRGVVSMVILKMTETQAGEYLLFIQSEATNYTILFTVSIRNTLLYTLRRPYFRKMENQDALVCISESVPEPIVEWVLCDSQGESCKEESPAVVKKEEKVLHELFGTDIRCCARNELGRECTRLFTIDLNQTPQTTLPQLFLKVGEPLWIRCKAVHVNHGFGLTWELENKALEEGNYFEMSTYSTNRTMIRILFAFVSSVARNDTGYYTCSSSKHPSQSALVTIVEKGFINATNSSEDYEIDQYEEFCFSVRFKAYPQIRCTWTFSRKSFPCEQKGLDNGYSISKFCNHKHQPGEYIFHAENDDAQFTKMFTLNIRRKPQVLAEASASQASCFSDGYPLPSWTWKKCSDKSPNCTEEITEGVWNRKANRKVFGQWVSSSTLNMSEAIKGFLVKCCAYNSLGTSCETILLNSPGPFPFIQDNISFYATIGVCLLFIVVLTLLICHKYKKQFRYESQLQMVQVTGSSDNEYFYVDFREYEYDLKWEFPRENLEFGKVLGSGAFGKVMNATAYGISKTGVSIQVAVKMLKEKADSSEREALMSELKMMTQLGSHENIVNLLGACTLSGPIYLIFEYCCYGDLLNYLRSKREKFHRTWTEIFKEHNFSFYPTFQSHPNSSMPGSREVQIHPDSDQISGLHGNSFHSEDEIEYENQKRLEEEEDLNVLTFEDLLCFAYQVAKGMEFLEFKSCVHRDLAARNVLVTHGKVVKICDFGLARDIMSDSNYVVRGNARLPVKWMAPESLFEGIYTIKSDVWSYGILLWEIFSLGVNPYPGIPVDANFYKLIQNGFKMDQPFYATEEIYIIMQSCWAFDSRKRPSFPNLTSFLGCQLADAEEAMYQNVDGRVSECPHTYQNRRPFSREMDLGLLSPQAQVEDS

Chain of Proto-oncogene tyrosine-protein kinase Src (Homo sapiens) (P12931 2-536 limits assumed): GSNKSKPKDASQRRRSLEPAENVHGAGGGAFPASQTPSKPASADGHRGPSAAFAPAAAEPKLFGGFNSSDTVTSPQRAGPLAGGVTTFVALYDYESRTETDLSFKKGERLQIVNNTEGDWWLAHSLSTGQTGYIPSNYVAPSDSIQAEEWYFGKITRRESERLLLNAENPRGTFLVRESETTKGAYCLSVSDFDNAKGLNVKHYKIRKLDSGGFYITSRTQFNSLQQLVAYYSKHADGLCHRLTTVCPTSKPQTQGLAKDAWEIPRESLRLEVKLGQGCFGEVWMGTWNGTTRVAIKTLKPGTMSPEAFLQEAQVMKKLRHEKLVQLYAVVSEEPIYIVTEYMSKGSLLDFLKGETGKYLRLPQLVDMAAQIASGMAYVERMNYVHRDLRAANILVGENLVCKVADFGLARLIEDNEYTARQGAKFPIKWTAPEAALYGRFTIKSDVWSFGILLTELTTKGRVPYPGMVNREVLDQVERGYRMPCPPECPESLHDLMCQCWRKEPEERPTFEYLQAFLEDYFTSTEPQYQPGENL
Chain of Fibroblast growth factor receptor 2 (Homo sapiens) (P21802 22-821 limits assumed): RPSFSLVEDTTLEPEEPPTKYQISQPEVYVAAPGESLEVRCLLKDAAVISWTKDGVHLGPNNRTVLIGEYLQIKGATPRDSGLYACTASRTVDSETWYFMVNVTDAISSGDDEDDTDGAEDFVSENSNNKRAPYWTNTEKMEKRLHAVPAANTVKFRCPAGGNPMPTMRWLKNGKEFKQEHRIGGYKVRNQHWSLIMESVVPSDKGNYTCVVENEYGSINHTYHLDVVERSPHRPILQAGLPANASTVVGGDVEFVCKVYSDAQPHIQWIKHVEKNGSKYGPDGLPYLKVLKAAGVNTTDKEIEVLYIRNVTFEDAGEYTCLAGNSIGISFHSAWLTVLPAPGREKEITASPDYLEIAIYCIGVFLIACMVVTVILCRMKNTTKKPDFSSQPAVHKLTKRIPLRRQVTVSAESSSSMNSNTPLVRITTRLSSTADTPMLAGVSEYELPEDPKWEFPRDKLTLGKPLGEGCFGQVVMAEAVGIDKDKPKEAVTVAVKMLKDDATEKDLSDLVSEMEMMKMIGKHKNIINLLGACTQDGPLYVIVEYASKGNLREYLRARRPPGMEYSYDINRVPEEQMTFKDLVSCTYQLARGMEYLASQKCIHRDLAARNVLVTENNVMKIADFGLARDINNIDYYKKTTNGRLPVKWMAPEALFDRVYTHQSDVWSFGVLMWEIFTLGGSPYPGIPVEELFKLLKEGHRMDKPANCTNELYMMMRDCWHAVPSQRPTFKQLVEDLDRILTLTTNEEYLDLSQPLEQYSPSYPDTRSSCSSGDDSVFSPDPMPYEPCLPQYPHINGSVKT
Chain of Ephrin type-A receptor 2 (Homo sapiens) (P29317 whole entry): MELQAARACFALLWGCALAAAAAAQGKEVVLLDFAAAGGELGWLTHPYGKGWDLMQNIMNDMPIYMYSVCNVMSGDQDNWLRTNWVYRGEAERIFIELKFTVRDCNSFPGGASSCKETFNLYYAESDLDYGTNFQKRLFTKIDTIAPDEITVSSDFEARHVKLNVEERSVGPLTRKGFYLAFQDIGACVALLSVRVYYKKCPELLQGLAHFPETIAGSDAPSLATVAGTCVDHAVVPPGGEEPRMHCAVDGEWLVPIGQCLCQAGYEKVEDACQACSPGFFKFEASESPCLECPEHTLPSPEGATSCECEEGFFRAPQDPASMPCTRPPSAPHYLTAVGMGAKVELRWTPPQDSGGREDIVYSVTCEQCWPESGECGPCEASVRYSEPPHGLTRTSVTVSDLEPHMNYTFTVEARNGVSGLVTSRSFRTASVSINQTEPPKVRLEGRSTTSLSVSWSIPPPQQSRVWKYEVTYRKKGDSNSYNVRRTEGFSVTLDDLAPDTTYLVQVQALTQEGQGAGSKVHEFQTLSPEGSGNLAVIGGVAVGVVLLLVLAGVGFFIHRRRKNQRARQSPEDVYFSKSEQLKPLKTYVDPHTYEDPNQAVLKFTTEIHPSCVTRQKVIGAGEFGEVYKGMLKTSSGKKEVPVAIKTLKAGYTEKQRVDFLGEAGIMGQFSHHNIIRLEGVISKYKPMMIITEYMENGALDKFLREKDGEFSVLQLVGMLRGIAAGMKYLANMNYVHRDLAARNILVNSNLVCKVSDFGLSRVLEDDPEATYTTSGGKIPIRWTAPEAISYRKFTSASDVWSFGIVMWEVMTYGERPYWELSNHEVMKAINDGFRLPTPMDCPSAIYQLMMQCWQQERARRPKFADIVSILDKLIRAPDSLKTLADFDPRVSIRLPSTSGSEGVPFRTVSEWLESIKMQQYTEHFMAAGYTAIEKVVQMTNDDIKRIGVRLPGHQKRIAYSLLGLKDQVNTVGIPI
Chain of Fibroblast growth factor receptor 4 (Homo sapiens) (P22455 22-802 limits assumed): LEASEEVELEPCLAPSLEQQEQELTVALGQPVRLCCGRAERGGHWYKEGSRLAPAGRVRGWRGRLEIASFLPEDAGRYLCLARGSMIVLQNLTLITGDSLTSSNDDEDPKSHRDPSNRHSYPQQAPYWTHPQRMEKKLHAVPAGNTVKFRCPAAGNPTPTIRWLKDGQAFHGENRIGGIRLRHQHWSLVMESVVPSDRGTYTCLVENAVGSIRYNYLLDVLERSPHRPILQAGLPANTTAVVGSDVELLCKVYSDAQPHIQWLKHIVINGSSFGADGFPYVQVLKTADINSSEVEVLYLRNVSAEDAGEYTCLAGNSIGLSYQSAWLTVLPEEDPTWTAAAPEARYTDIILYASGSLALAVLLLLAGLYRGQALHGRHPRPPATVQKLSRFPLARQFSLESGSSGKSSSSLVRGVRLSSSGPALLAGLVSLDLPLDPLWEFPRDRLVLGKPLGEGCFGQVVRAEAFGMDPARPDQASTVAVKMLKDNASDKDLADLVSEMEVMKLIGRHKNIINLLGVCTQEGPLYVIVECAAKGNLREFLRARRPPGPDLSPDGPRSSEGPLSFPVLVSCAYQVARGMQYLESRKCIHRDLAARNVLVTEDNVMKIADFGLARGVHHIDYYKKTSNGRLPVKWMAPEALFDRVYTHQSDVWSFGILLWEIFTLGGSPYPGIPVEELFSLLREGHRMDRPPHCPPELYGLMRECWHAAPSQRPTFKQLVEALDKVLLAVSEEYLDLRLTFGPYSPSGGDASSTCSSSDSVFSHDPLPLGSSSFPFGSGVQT
Chain of Fibroblast growth factor receptor 3 (Homo sapiens) (P22607 23-806 limits assumed): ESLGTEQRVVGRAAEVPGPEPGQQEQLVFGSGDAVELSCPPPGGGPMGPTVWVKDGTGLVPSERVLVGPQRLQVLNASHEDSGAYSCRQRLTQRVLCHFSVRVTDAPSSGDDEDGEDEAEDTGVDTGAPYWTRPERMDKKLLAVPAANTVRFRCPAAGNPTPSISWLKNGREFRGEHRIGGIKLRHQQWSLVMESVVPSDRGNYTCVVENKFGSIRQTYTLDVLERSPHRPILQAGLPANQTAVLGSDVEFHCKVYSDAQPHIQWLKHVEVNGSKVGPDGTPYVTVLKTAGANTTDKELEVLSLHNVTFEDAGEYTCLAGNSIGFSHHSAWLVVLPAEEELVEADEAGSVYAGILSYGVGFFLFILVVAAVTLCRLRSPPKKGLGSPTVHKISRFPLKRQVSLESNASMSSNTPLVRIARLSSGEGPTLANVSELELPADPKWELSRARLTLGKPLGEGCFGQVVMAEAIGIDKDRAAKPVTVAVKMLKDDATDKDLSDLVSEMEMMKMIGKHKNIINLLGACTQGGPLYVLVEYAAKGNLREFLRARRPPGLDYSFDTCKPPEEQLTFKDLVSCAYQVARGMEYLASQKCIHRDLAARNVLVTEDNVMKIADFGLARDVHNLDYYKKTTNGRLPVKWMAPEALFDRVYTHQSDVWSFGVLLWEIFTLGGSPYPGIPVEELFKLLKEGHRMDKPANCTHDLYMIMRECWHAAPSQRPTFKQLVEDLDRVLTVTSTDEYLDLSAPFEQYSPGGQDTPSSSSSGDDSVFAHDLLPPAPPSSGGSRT

For `Cn1cc(-c2cc3c(cc2NC(=O)c2coc(-c4ccnc(N)c4)n2)CC(C)(C)O3)cn1`, the Activity (OCI-Ly10 [1]) was 45.7%, the Activity (OCI-Ly10 [2]) was “Active” and the inhibition at 0.2 µM (OCI-Ly10 [3]) was 29.5%. The Activity (OCI-Ly10 [4]) was 92.3%, the Activity (OCI-Ly10 [5]) was 11.2% and the inhibition [6] was “Dose-Dependent Effect”. For the same compound, the inhibition [7] was “inactive”, the Activity (OCI-Ly10 [8]) was 67.2% and the IC50 (U2932) was 1250 nM. The Activity (OCI-Ly10 [9]) was 33.7%, the Activity (OCI-Ly10 [10]) was 33.2% and the inhibition [11] was “inactive”. The inhibition at 1.6 µM (OCI-Ly10 [12]) was 77.3%, the inhibition [13] was “inactive” and the inhibition [14] was “inactive”. It also gave an Activity (OCI-Ly10 [15]) of 25.2%, an inhibition at 0.4 µM (OCI-Ly10 [16]) of 75.7% and an inhibition at 1.6 µM (OCI-Ly10 [17]) of 89.6%. The Activity (OCI-Ly10 [18]) was “Active”, the Activity (OCI-Ly10 [19]) was 22.8% and the inhibition at 1.6 µM (OCI-Ly10 [20]) was 88.6%. The inhibition [21] was “inactive”, the Activity (OCI-Ly10 [22]) was 19.6% and the inhibition [23] was “inactive”. It also gave an IC50 [24] of 8.7 nM and an inhibition [25] of over 50%.
